Columns and labels:
[1] = Comparison of effects on growth in intact male and female White Leghorn chickens (Study II, Table 1); type: in vivo; conditions: for 6-week Body Weight Change / 12-week Body Weight Change / 12-week Shank-Toe Length Change: 1.0-cm implant, vs cholesterol control, (decrease); for 6-week Body Weight / 12-week Body Weight (final) / 12-week Shank-Toe Length: 1.0-cm s.c. implant
Description: (§1) The single comb White Leghorn strain (Dekalb XL) of chicken (Avian Services, Frenchtown, N.J.) was used in all studies. Chicks were obtained on the day following hatch and were then maintained in a well ventilated, temperature- and humidity-controlled animal room. Chicks were housed in temperature-controlled (access to small brood chambers--32° to 35° C.), wire-floored, 5-tier brooder batteries (measuring 0.74 W×1.55 L×0.27 H m per tier) until termination of respective studies. A 12 hour light:12 hour dark photoperiod was maintained at all times within the animal room. Feed and water were available ad libitum, with a standard commercial diet (Agway; Bordentown, N.J.), chick starter mash, fed to chicks 1 to 42 days of age, and then from 43 to 84 days, grower mash was provided (manufacturer statement on ration compositions are shown in Table 2).
In all studies, chicks were rank-ordered by weight, wing-banded and distributed into treatment groups of equal body weights at 14 days of age. Excluding Study I, e.g., in which male, female and castrate male comparisons were made, all control groups were implanted with 1.0-cm length cholesterol-filled Silastic polysiloxane implants (i.e., steroid surface exposure of 1.0-cm; actual length was 2.0-cm with 1/2 cm wood dowel plugs placed at each end of implant). The remaining treatment groups consisted of chicks (male, female or castrated male) implanted with either testosterone-, 5-alpha-DHT-, 5-beta-DHT-, estradiol-17-beta-, or 19-nortestosterone-filled Silastic polysiloxane implants with steriod surface exposures of either 0.3, 1.0 or 3.0 cm in length. Steroid implants were prepared by manually packing respective crystalline steroids (Steraloids; Wilton, N.H.) into Silastic Medical Grade tubing (1.57 mm i.d.; Dow Corning) (Smith et al., 1977). The amounts of steroid contained in the implants were as follows (mean±SEM of 20 randomly chosen implants, 5 for each steroid): 2.6±0.2 mg (0.3-cm), 8.9±0.4 mg (1.0-cm), and 29.2±0.7 mg 3.0-cm). At the time of group assignment, implants were placed in the subcutaneous (S.C.) layer of skin behind the neck. Supplemental steroid implants (containing doses of steroids equivalent to those of the initial implants) were implanted at 6 and 10 weeks of age, without removal of prior implants, to ensure adequate androgen replacement with increasing growth. Cage floors and fecal collection trays were checked for 2 consecutive days following each implantation session to ensure completeness of procedure. […] An outline of individual studies along with experimental treatments (i.e., type and dose of steroid) and number of birds per treatment group is given in Table 3.
Body weight and shank-toe length (King, 1969; combined length of metatarsus and longest toe which is an estimate of bone growth) were measured at weekly (or biweekly in Study I) intervals from the beginning through the end of each study. At the termination of studies I (12 weeks of age), III (12 weeks of age), IV (12 weeks of age) and V (6 weeks of age), several organs were excised and immediately weighed at necropsy. Relative tissue weights (percent of final body weight) and body weight minus [comb plus wattle weights] (i.e., final adjusted body weight) were also calculated. Excluding Study I, biweekly blood samples were obtained by venipuncture of the wing vein from the same individual birds for respective treatments. After centrifugation of whole blood, plasma was removed and stored at -20° C. until hormone assays were performed.
^a Steroid treatments entailed the subcutaneous implantation (between
the shoulders) of 1.0 cm length, silastic implants (crystalline steroids
at 2, 6 and 10 weeks of age.)

[2] = Comparison of effect of 19-nortestosterone and 5-alpha-DHT on growth in castrated male White Leghorn chickens (Study V, Table III); type: in vivo; conditions: for Abdominal Adipose / Final Shank-toe Length / Right Breast Muscle: 6 weeks; for Abdominal Adipose Change / Final 6-week Body Wt. Change / Final Shank-toe Length Change / Right Breast Muscle Change: given unsigned (decrease vs cholesterol); for Final 6-week Body Wt.: minus comb + wattle weight
Description: as §1
Excluding Study II, chicks were either castrated (Quigley, 1967) or sham-operated at 13 days of age. Prior to castration, cockerels were deprived of feed and water for 24 hours in order that the intestines may become empty and thus permit better vision into the body cavity and accessibility to testes. Birds were restrained by fastening the wings and legs with leather straps so that sufficient tension was applied to hold the bird well stretched out in a lateral recumbency (on its left side). Next, an approximate 1 inch incision was made midway between the last two ribs and a small rib spreader inserted to hold the ribs about 1/2 inch apart.
Forceps were used to remove both testicles, with the lower or left testicle removed first. The forceps were carefully worked over the testicle and so manipulated as to enclose the entire organ. It was then drawn out with a slight twisting motion. At this step, care was taken not to rupture any of the primary blood vessels. When the rib spreader was removed, and the tension on the bird released (i.e., leg and wing straps removed), the skin and thigh muscles slipped back over the incision thus affording a natural protection. No special care was necessary for surgically manipulated birds other than to puncture "air pockets" which developed under the skin due to air escaping from within the abdominal cavity before the incision between the ribs was healed.
In all studies, chicks were rank-ordered by weight, wing-banded and distributed into treatment groups of equal body weights at 14 days of age. Excluding Study I, e.g., in which male, female and castrate male comparisons were made, all control groups were implanted with 1.0-cm length cholesterol-filled Silastic polysiloxane implants (i.e., steroid surface exposure of 1.0-cm; actual length was 2.0-cm with 1/2 cm wood dowel plugs placed at each end of implant). The remaining treatment groups consisted of chicks (male, female or castrated male) implanted with either testosterone-, 5-alpha-DHT-, 5-beta-DHT-, estradiol-17-beta-, or 19-nortestosterone-filled Silastic polysiloxane implants with steriod surface exposures of either 0.3, 1.0 or 3.0 cm in length. Steroid implants were prepared by manually packing respective crystalline steroids (Steraloids; Wilton, N.H.) into Silastic Medical Grade tubing (1.57 mm i.d.; Dow Corning) (Smith et al., 1977). The amounts of steroid contained in the implants were as follows (mean±SEM of 20 randomly chosen implants, 5 for each steroid): 2.6±0.2 mg (0.3-cm), 8.9±0.4 mg (1.0-cm), and 29.2±0.7 mg 3.0-cm). At the time of group assignment, implants were placed in the subcutaneous (S.C.) layer of skin behind the neck. Supplemental steroid implants (containing doses of steroids equivalent to those of the initial implants) were implanted at 6 and 10 weeks of age, without removal of prior implants, to ensure adequate androgen replacement with increasing growth. Cage floors and fecal collection trays were checked for 2 consecutive days following each implantation session to ensure completeness of procedure. […]

| Compound | 6-week Body Weight Change ([1]; intact female) [%] | 12-week Body Weight Change ([1]; intact female) [%] | 12-week Shank-Toe Length Change ([1]; intact female) [%] | 6-week Body Weight ([1]; intact female) [g] | 12-week Body Weight (final) ([1]; intact female) [g] | 12-week Shank-Toe Length ([1]; intact female) [cm] | 6-week Body Weight Change ([1]; intact male) [%] | 12-week Body Weight Change ([1]; intact male) [%] | 12-week Shank-Toe Length Change ([1]; intact male) [%] | 6-week Body Weight ([1]; intact male) [g] | 12-week Body Weight (final) ([1]; intact male) [g] | 12-week Shank-Toe Length ([1]; intact male) [cm] | Abdominal Adipose ([2]; 1.0-cm implant) [g] | Final Shank-toe Length ([2]; 1.0-cm implant) [cm] | Right Breast Muscle ([2]; 1.0-cm implant) [g] | Abdominal Adipose Change ([2]; 1.0-cm implant) [%] | Final 6-week Body Wt. Change ([2]; 1.0-cm implant) [%] | Final Shank-toe Length Change ([2]; 1.0-cm implant) [%] | Right Breast Muscle Change ([2]; 1.0-cm implant) [%] | Final 6-week Body Wt. ([2]; 1.0-cm implant) [g] | further results |
| --- | --- | --- | --- | --- | --- | --- | --- | --- | --- | --- | --- | --- | --- | --- | --- | --- | --- | --- | --- | --- | --- |
| C[C@]12CC[C@H]3[C@@H](CCC4=CC(=O)CC[C@@]43C)[C@@H]1CC[C@@H]2O [Testosterone, testosterone] | 5.8 | 5.1 | 2.6 | 553 ± 11 | 1067 ± 22 | 14.7 ± 0.09 | 9.4 | 8.6 | 3.1 | 585 ± 13 | 1275 ± 27 | 16.5 ± 0.17 |  |  |  |  |  |  |  |  |  |
| C[C@]12CCC(=O)C[C@@H]1CC[C@@H]1[C@@H]2CC[C@]2(C)[C@@H](O)CC[C@@H]12 [5-alpha-DHT, 5-alpha-dihydrotestosterone] | 9.9 | 6.5 | 3.3 | 529 ± 12 | 1051 ± 15 | 14.6 ± 0.12 | 17.2 | 16.1 | 7.0 | 535 ± 27 | 1171 ± 50 | 15.9 ± 0.24 | 2.05 ± 0.12 | 11.4 ± 0.07 | 16.3 ± 0.67 | 33 | 8.6 | 4.2 | 17.7 | 422 ± 10 |  |
| C[C@]12CC[C@H]3[C@@H](CCC4=CC(=O)CC[C@@H]43)[C@@H]1CC[C@@H]2O [19-Nortestosterone, 19-nortestosterone] |  |  |  |  |  |  |  |  |  |  |  |  | 0.26 ± 0.08 | 10.2 ± 0.12 | 13.2 ± 0.87 | 91 | 24.0 | 14.3 | 33.3 | 351 ± 13 | Abdominal Adipose ([2]; 0.3-cm implant): 1.26 ± 0.19 g; Final Shank-toe Length ([2]; 0.3-cm implant): 10.8 ± 0.13 cm; Right Breast Muscle ([2]; 0.3-cm implant): 13.9 ± 1.1 g; Abdominal Adipose Change ([2]; 0.3-cm implant): 58%; Final 6-week Body Wt. Change ([2]; 0.3-cm implant): 16.9%; Final Shank-toe Length Change ([2]; 0.3-cm implant): 9.2%; Right Breast Muscle Change ([2]; 0.3-cm implant): 29.8%; Final 6-week Body Wt. ([2]; 0.3-cm implant): 384 ± 18 g; Abdominal Adipose ([2]; 3.0-cm implant): 0.58 ± 0.12 g; Final Shank-toe Length ([2]; 3.0-cm implant): 9.8 ± 0.17 cm; Right Breast Muscle ([2]; 3.0-cm implant): 12.0 ± 0.96 g; Abdominal Adipose Change ([2]; 3.0-cm implant): 81%; Final 6-week Body Wt. Change ([2]; 3.0-cm implant): 24.5%; Final Shank-toe Length Change ([2]; 3.0-cm implant): 17.6%; Right Breast Muscle Change ([2]; 3.0-cm implant): 39.4%; Final 6-week Body Wt. ([2]; 3.0-cm implant): 349 ± 19 g |

— US5208032A, “Increasing the growth of turkeys using implant of 19-nortestosterone” (Rutgers, The State University of New Jersey, priority 1992, dated 1993)
